Laboratory results taken from PMC11161644, “An effective and rapidly degradable disinfectant from disinfection byproducts” (Nature Communications, 2024).
Several values for one entry are separate records, joined by “and”; a condition that tells them apart may be missing. Identical values can stand only once.

Assays:
[1] = UPLC/ESI-tqMS time profile of 2,6-DCQ and its degradation products in simulated seawater (pH 8.2, darkness); OH-DCQ formation; details: for Concentration: 2,6-DCQ degradation / OH-DCQ formation; for Peak area: 2,6-DCQ degradation, pH 8.2, darkness
Description: A Waters UPLC system coupled with ESI-tqMS was used to characterize the degradation products of 2,6-DCQ. The UPLC separation was performed using an HSS T3 column (100 × 2.1 mm, 1.8 μm particle size, Waters) with a column temperature of 35 °C. A gradient eluent of methanol–water was applied at a flow rate of 0.4 mL min^−1. The gradient program was set as follows: methanol/water (v/v) ratio changed linearly from 5/95 to 90/10 in the first 8 min and then returned to 5/95 during 8.0‒8.1 min, which was held for 2.9 min for re-equilibration. The ESI-tqMS was set as follows: ESI negative mode, capillary voltage 2.8 kV, cone voltage 10–50 V (depending on analytes), cone gas flow 50 L h^−1, source temperature 120 °C, desolvation temperature 400 °C, desolvation gas flow 800 L h^−1, collision energy 15–50 eV (depending on analytes), collision gas (argon) flow 0.25 mL min^−1, and mass resolution 15 (1-unit resolution).
The degradation of 2,6-DCQ in seawater was simulated by adding 10 mg L^−1 2,6-DCQ to 50 mL ultrapure water, which was adjusted to pH 8.2 with 5 mM sodium carbonate (to simulate the alkalinity in seawater and also to be compatible with the subsequent UPLC/ESI-tqMS analysis). The sample was kept in darkness for 0–24 h, during which the pH of the sample was maintained at 8.1 ± 0.1. At a designated reaction time, 7.5 μL of the sample was injected into the UPLC system. For a nonhalogenated degradation product, the selected ion recording (SIR) mode with a dwell time of 0.05 s was adopted to obtain the retention time. For halogenated degradation products, the multiple reaction monitoring mode with a dwell time of 0.05 s was used to obtain the retention time and the isotopic abundance ratio. To investigate the time-dependent profile of 2,6-DCQ and its degradation products, the peak area of each compound was determined using the SIR mode in the UPLC/ESI-tqMS analysis.
The second aliquot was subjected to analysis of total organic halogen to quantify the collected OH-DCQ. The determination of total organic halogen was based on Standard Method 5320B[52], with modifications of using off-line ion chromatography for halide detection. Briefly, the aliquot was dissolved in 100 mL ultrapure water and acidified to pH 2 with concentrated nitric acid[52] prior to adsorption onto pre-packed activated carbon columns (Mitsubishi). A three-channel adsorption module (TXA03C, Mitsubishi Chemical Analytech) was used for adsorption. An AQF-100 automatic quick furnace (Mitsubishi Chemical Analytech) was used for pyrolysis. During the pyrolysis process, the chlorine atoms in OH-DCQ were converted to chloride. The chloride ion concentration was determined using an ICS-3000 ion chromatography system (Dionex). 2,6-DCQ was used as a standard compound for measuring total organic halogen to determine the recovery of the analysis. The total organic halogen analysis was conducted in duplicate.

[2] = system: P. dumerilii embryos; assay: Developmental toxicity (EC50) of OH-DCQ and 2,6-DCQ to P. dumerilii embryos; type: in vivo, Platynereis dumerilii
Description: The third aliquot was subjected to the developmental toxicity assay with P. dumerilii embryos. The aliquot was dissolved in 10 mL of seawater and adjusted to pH 8.2. The embryos at 12-h postfertilization were exposed to different levels of OH-DCQ for 12 h. By 24-h postfertilization, normally and abnormally developed embryos were counted using an inverted stereomicroscope. Based on the percentage of normally developed embryos, an exposure−response curve was generated. The median effective concentration (EC50) was determined using SigmaPlot 12 software. The developmental toxicity of 2,6-DCQ was also evaluated for comparison. The toxicity bioassay was conducted in duplicate.

[3] = system: rat; details: oral; cited from earlier work

With O=C1C=C(Cl)C(=O)C(Cl)=C1 [2,6-DCQ, 2,6-dichlorobenzoquinone] as the molecule, how does the Concentration ([1]; degradation time 0 h) read?
Its Concentration is 10000 ng/mL.

What about the Concentration ([1]; degradation time 0.25 h) of the same molecule?
Its Concentration is 9325 ng/mL.

What about the Concentration ([1]; degradation time 0.5 h) of the same molecule?
Its Concentration is 7750.7 ng/mL.

What about the Concentration ([1]; degradation time 0.75 h) of the same molecule?
The Concentration was 7678 ng/mL.

What about the Concentration ([1]; degradation time 1 h) of the same molecule?
The Concentration was 6527 ng/mL.

What about the Concentration ([1]; degradation time 1.25 h) of the same molecule?
The Concentration was 5831 ng/mL.

What about the Concentration ([1]; degradation time 1.5 h) of the same molecule?
Its Concentration is 4783 ng/mL.

And the Concentration ([1]; degradation time 1.75 h)?
Its Concentration is 4325 ng/mL.

And the Concentration ([1]; degradation time 2 h)?
The Concentration was 3926 ng/mL.

And the Concentration ([1]; degradation time 2.25 h)?
Its Concentration is 3481 ng/mL.

What about the Concentration ([1]; degradation time 2.5 h) of the same molecule?
Its Concentration is 3034.4 ng/mL.

And the Concentration ([1]; degradation time 2.75 h)?
Its Concentration is 2761 ng/mL.

What about the Concentration ([1]; degradation time 3 h) of the same molecule?
Its Concentration is 2333 ng/mL.

What about the Concentration ([1]; degradation time 3.25 h) of the same molecule?
The Concentration was 2120 ng/mL.

What about the Concentration ([1]; degradation time 3.5 h) of the same molecule?
The Concentration was 1754 ng/mL.

And the Concentration ([1]; degradation time 3.75 h)?
The Concentration was 1608 ng/mL.

What about the Concentration ([1]; degradation time 4 h) of the same molecule?
The Concentration was 1408 ng/mL.

And the Concentration ([1]; degradation time 4.5 h)?
The Concentration was 986.7 ng/mL.

What about the Concentration ([1]; degradation time 5 h) of the same molecule?
Its Concentration is 705.1 ng/mL.

What about the Concentration ([1]; degradation time 5.5 h) of the same molecule?
Its Concentration is 583.3 ng/mL.

And the Concentration ([1]; degradation time 6 h)?
The Concentration was 424 ng/mL.

And the Concentration ([1]; degradation time 6.5 h)?
The Concentration was 287.5 ng/mL.

What about the Concentration ([1]; degradation time 7 h) of the same molecule?
Its Concentration is 231.6 ng/mL.

And the Concentration ([1]; degradation time 7.5 h)?
Its Concentration is 179.6 ng/mL.

What about the Concentration ([1]; degradation time 8 h) of the same molecule?
The Concentration was 153.3 ng/mL.

What about the Concentration ([1]; degradation time 10 h) of the same molecule?
The Concentration was 54.98 ng/mL.

And the Concentration ([1]; degradation time 12 h)?
Its Concentration is 24.77 ng/mL.

What about the Concentration ([1]; degradation time 14 h) of the same molecule?
Its Concentration is 14.36 ng/mL.

What about the Concentration ([1]; degradation time 16 h) of the same molecule?
Its Concentration is 0 ng/mL.

What about the Concentration ([1]; degradation time 18 h) of the same molecule?
The Concentration was 0 ng/mL.

And the Concentration ([1]; degradation time 20 h)?
The Concentration was 0 ng/mL.

And the Concentration ([1]; degradation time 24 h)?
The Concentration was 0 ng/mL.

And the Peak area ([1]; 0 h)?
Its Peak area is 56527.8.

And the Peak area ([1]; 0.25 h)?
Its Peak area is 52714.2.

What about the Peak area ([1]; 0.5 h) of the same molecule?
The Peak area was 43813.

What about the Peak area ([1]; 0.75 h) of the same molecule?
The Peak area was 43401.4.

What about the Peak area ([1]; 1 h) of the same molecule?
Its Peak area is 36894.2.

And the Peak area ([1]; 1.25 h)?
The Peak area was 32960.2.

What about the Peak area ([1]; 1.5 h) of the same molecule?
Its Peak area is 27035.4.

What about the Peak area ([1]; 1.75 h) of the same molecule?
The Peak area was 24446.8.

What about the Peak area ([1]; 2 h) of the same molecule?
The Peak area was 22195.6.

And the Peak area ([1]; 2.25 h)?
Its Peak area is 19679.8.

And the Peak area ([1]; 2.5 h)?
Its Peak area is 17152.8.

And the Peak area ([1]; 2.75 h)?
The Peak area was 15608.6.

What about the Peak area ([1]; 3 h) of the same molecule?
Its Peak area is 13185.2.

And the Peak area ([1]; 3.25 h)?
Its Peak area is 11984.

And the Peak area ([1]; 3.5 h)?
The Peak area was 9914.8.

What about the Peak area ([1]; 3.75 h) of the same molecule?
Its Peak area is 9088.8.

What about the Peak area ([1]; 4 h) of the same molecule?
Its Peak area is 7959.

What about the Peak area ([1]; 4.5 h) of the same molecule?
Its Peak area is 5577.6.

And the Peak area ([1]; 5 h)?
The Peak area was 3985.8.

What about the Peak area ([1]; 5.5 h) of the same molecule?
The Peak area was 3297.

What about the Peak area ([1]; 6 h) of the same molecule?
Its Peak area is 2396.8.

And the Peak area ([1]; 6.5 h)?
The Peak area was 1625.4.

And the Peak area ([1]; 7 h)?
Its Peak area is 1309.

What about the Peak area ([1]; 7.5 h) of the same molecule?
The Peak area was 1015.

What about the Peak area ([1]; 8 h) of the same molecule?
The Peak area was 866.6.

What about the Peak area ([1]; 10 h) of the same molecule?
The Peak area was 310.8.

And the Peak area ([1]; 12 h)?
Its Peak area is 140.

What about the Peak area ([1]; 14 h) of the same molecule?
The Peak area was 81.2.

And the Peak area ([1]; 16 h)?
The Peak area was 0.

And the Peak area ([1]; 18 h)?
Its Peak area is 0.

What about the Peak area ([1]; 20 h) of the same molecule?
Its Peak area is 0.

And the Peak area ([1]; 24 h)?
Its Peak area is 0.

What about the Normal development ([2]; 2,6-DCQ concentration 0.2 mg L-1) of the same molecule?
Its Normal development is 80.7017% and 79.2079%.

And the Normal development ([2]; 2,6-DCQ concentration 0.3 mg L-1)?
Its Normal development is 76.7442% and 82.4428%.

And the Normal development ([2]; 2,6-DCQ concentration 0.4 mg L-1)?
The Normal development was 80% and 80.822%.

And the Normal development ([2]; 2,6-DCQ concentration 0.5 mg L-1)?
Its Normal development is 62.0155% and 62.3077%.

What about the Normal development ([2]; 2,6-DCQ concentration 0.6 mg L-1) of the same molecule?
The Normal development was 42.1875% and 37.2727%.

And the Normal development ([2]; 2,6-DCQ concentration 0.75 mg L-1)?
Its Normal development is 16.2963% and 20.7921%.

And the Normal development ([2]; 2,6-DCQ concentration 1 mg L-1)?
The Normal development was 7.407% and 6.667%.

What about the “Developmental toxicity relative to OH-DCQ (times higher)” value ([2]; P. dumerilii embryos) of the same molecule?
Its value is 149 times.

And the LD10 [3]?
Its LD10 is 500 mg/kg.
